In US10722501B2 (BAYER AKTIENGESELLSCHAFT, priority 2016, dated 2020):

molecular target: T1, recombinant full-length human prolyl endopeptidase (PREP) (Homo sapiens, UniProt P48147); assay: Biochemical human prolyl endopeptidase (PREP) assay with fluorescently labelled substrate; settings: substrate Z-Gly-Pro-AMC 50 μM, 32° C., 60 min; some as mean values from multiple independent determinations
T1 construct: To recombinant full-length human prolyl endopeptidase (PREP, R&D-Systems, 4308-SE); purchased R&D-Systems 4308-SE
T1 sequence (P48147 1-710): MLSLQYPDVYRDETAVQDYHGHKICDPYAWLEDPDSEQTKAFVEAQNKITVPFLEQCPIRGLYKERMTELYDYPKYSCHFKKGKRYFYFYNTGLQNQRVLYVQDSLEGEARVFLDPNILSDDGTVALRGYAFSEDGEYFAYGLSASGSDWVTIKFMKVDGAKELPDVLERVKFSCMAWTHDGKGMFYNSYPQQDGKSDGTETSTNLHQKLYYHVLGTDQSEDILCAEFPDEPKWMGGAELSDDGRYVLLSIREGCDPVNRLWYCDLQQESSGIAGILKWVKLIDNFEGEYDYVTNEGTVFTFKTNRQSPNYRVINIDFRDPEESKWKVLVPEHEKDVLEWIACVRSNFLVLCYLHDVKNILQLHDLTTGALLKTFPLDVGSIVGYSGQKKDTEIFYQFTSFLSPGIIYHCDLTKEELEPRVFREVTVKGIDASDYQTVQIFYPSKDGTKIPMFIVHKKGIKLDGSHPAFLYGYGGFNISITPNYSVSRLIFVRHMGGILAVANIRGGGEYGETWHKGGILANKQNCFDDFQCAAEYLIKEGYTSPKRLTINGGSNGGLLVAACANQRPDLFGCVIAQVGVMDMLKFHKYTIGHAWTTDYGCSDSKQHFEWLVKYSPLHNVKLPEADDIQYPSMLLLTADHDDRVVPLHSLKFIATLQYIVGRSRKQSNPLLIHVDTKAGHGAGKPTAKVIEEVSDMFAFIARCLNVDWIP
Protocol: B-1 Biochemical Human Prolyl Endopeptidase (PREP) Assay for Identification of Inhibitors of PREP Activity Using a Fluorescently Labelled Substrate Principle of the Assay:
The enzymatic conversion of the fluorescent peptide substrate was observed on the basis of the measurement of the fluorescence intensity. The enzyme activity was determined by the ascertaining of the initial slope in the increase in fluorescence. Compounds that inhibit PREP were identified on the basis of the decrease in the initial slope compared to a reaction mixture without test compound.
Determination of Activity:
IC50 values were determined by the plotting of the percentage PREP activity against the concentration of the test substance by interpolation.
To recombinant full-length human prolyl endopeptidase (PREP, R&D-Systems, 4308-SE; final concentration, for example, 0.4 nM, volume: 25 μl) in reaction buffer (50 mM Tris-HCl, pH 7.5; 150 mM NaCl; 0.13% BSA, 5 mM EDTA, 3 mM GSH, 0.005% Brij-35) was added a test compound (in DMSO, in an appropriate final concentration range from 1 nM to 30 μM, volume: 1 μl) in a well of a 384-well microtitre plate. The reaction was initiated by adding the substrate Z-Gly-Pro-AMC (final concentration 50 μM; Z=carboxybenzyl; AMC=7-amino-4-methylcoumarin, volume: 25 μl). The progress of the PREP reaction was observed by measuring the fluorescence intensity in a Tecan SAFIRE II plate spectrophotometer at 32° C. over a period of 60 min (excitation wavelength: 360 nm, emission wavelength: 465 nm).
Table B-1 below collates the IC50 values thus obtained from the human prolyl endopeptidase assay for individual working examples of the invention (some as mean values from multiple independent individual determinations).

Row | SMILES | IC50 [nM]
1 | O=C([C@@H]1CCCc2nn(Cc3ncc(C(F)(F)F)cc3Cl)c(=O)n21)N1CC[C@@H](F)C1 [Example 401, (5S)-2-{[3-Chloro-5-(trifluoromethyl)pyridin-2-yl]methyl}-5-{[(3R)-3-fluoropyrrolidin-1-yl]carbonyl}-5,6,7,8-tetrahydro[1,2,4]triazolo[4,3-a]pyridin-3(2H)-one] | 3.4
2 | O=C(C1C(C(F)(F)F)CCc2nn(Cc3ncc(Cl)cc3F)c(=O)n21)N1C[C@@H](F)[C@@H](F)C1 (single isomer, unassigned) [Example 293] | 85
3 | O=C([C@@H]1CCCc2nn(Cc3cncc(Cl)c3)c(=O)n21)N1CC(F)C1 [Example 436, (5S)-2-[(5-Chloropyridin-3-yl)methyl]-5-[(3-fluoroazetidin-1-yl)carbonyl]-5,6,7,8-tetrahydro[1,2,4]triazolo[4,3-a]pyridin-3(2H)-one] | 4.7
4 | Cc1ccc(C2(Cn3nc4n(c3=O)[C@H](C(=O)N3CC(F)C3)CCC4)CC2)cc1 [Example 355, (5S)-5-[(3-Fluoroazetidin-1-yl)carbonyl]-2-{[1-(4-methylphenyl)cyclopropyl]methyl}-5,6,7,8-tetrahydro[1,2,4]triazolo[4,3-a]pyridin-3(2H)-one] | 1.3
5 | Cc1nc(C)c(Cn2nc3n(c2=O)C(C(=O)N2CCCC2)CCC3)nc1C (racemic) [Example 103, (5RS)-5-(Pyrrolidin-1-ylcarbonyl)-2-[(3,5,6-trimethylpyrazin-2-yl)methyl]-5,6,7,8-tetrahydro[1,2,4]triazolo[4,3-a]pyridin-3(2H)-one] | 0.16
6 | CNC(=O)c1ccc(Cn2nc3n(c2=O)C(C(=O)N2CCCC2)CCC3)cc1 (racemic) [Example 155, N-Methyl-4-{[(5RS)-3-oxo-5-(pyrrolidin-1-ylcarbonyl)-5,6,7,8-tetrahydro[1,2,4]triazolo[4,3-a]pyridin-2(3H)-yl]methyl}benzamide] | 210
7 | O=C(C1CC(C(F)(F)F)Cc2nn(Cc3ncc(F)cc3F)c(=O)n21)N1CCC(F)(F)C1 (racemic) [Example 573, (5RS,7RS)-2-[(3,5-Difluoropyridin-2-yl)methyl]-5-[(3,3-difluoropyrrolidin-1-yl)carbonyl]-7-(trifluoromethyl)-5,6,7,8-tetrahydro[1,2,4]triazolo[4,3-a]pyridin-3(2H)-one] | 5.9
8 | O=C(C1CC(C(F)(F)F)Cc2nn(Cc3ncc(Cl)cc3F)c(=O)n21)N1CC[C@H](F)C1 (single isomer, unassigned) [Example 265] | 1.3
9 | O=C([C@@H]1CCCc2nn(Cc3cc(C(F)(F)F)c(Cl)cn3)c(=O)n21)N1CC(F)C1 [Example 375, (5S)-2-{[5-Chloro-4-(trifluoromethyl)pyridin-2-yl]methyl}-5-[(3-fluoroazetidin-1-yl)carbonyl]-5,6,7,8-tetrahydro[1,2,4]triazolo[4,3-a]pyridin-3(2H)-one] | 2.6
10 | O=C([C@@H]1CCC(F)(F)c2nn(Cc3ccc(Cl)cn3)c(=O)n21)N1CC(F)C1 [Example 587, (5S)-2-[(5-Chloropyridin-2-yl)methyl]-8,8-difluoro-5-[(3-fluoroazetidin-1-yl)carbonyl]-5,6,7,8-tetrahydro[1,2,4]triazolo[4,3-a]pyridin-3(2H)-one] | 6.4
11 | O=C([C@@H]1CCCc2nn(Cc3ncc(Cl)cc3F)c(=O)n21)N1CC[C@H](F)C1 [Example 568, (5S)-2-[(5-Chloro-3-fluoropyridin-2-yl)methyl]-5-{[(3S)-3-fluoropyrrolidin-1-yl]carbonyl}-5,6,7,8-tetrahydro[1,2,4]triazolo[4,3-a]pyridin-3(2H)-one] | 0.62
12 | O=C(C1CC(C(F)(F)F)Cc2nn(Cc3ncc(Cl)cc3F)c(=O)n21)N1C[C@@H](F)[C@@H](F)C1 (single isomer, unassigned) [Example 267] | 2.3
13 | O=C([C@@H]1CCCc2nn(Cc3cccc(C(F)(F)F)c3)c(=O)n21)N1CC(F)C1 [Example 447, (5S)-5-[(3-Fluoroazetidin-1-yl)carbonyl]-2-[3-(trifluoromethyl)benzyl]-5,6,7,8-tetrahydro[1,2,4]triazolo[4,3-a]pyridin-3(2H)-one] | 1.4
14 | O=C(C1C(C(F)(F)F)CCc2nn(Cc3ccnc(C(F)(F)F)c3F)c(=O)n21)N1CC[C@H](F)C1 (single isomer, unassigned) [Example 281] | 2.2
15 | CC1CCC(C(=O)N2CC[C@H](F)C2)n2c1nn(Cc1ccc(F)cc1F)c2=O (mixture of isomers) [Example 326, (5RS,8RS)-2-(2,4-Difluorobenzyl)-5-{[(3S)-3-fluoropyrrolidin-1-yl]carbonyl}-8-methyl-5,6,7,8-tetrahydro[1,2,4]triazolo[4,3-a]pyridin-3(2H)-one] | 1.5
16 | O=C(C1CCCc2nn(Cc3ccccn3)c(=O)n21)N1CCCC1 (racemic) [Example 22, (5RS)-2-(Pyridin-2-ylmethyl)-5-(pyrrolidin-1-ylcarbonyl)-5,6,7,8-tetrahydro[1,2,4]triazolo[4,3-a]pyridin-3(2H)-one] | 42
17 | O=C([C@@H]1CCCc2nn(Cc3ncccc3Cl)c(=O)n21)N1CC(F)(F)C1 [Example 394, (5S)-2-[(3-Chloropyridin-2-yl)methyl]-5-[(3,3-difluoroazetidin-1-yl)carbonyl]-5,6,7,8-tetrahydro[1,2,4]triazolo[4,3-a]pyridin-3(2H)-one] | 28
18 | O=C([C@@H]1CCCc2nn(Cc3ccc(Cl)c(F)c3)c(=O)n21)N1CC(F)(F)C1 [Example 465, (5S)-2-(4-Chloro-3-fluorobenzyl)-5-[(3,3-difluoroazetidin-1-yl)carbonyl]-5,6,7,8-tetrahydro[1,2,4]triazolo[4,3-a]pyridin-3(2H)-one] | 2.1
19 | O=C([C@@H]1CCCc2nn(Cc3ccc(C(F)(F)F)nc3)c(=O)n21)N1CCC2CC21 (single isomer, unassigned) [Example 200] | 455
20 | O=C([C@@H]1CCCc2nn(CCc3ccc(F)cc3)c(=O)n21)N1C[C@@H](F)[C@@H](F)C1 [Example 344, (5S)-5-{[(3R,4S)-3,4-Difluoropyrrolidin-1-yl]carbonyl}-2-[2-(4-fluorophenyl)ethyl]-5,6,7,8-tetrahydro[1,2,4]triazolo[4,3-a]pyridin-3(2H)-one] | 0.53
21 | O=C(C1CCCc2nn(Cc3ccnc(Cl)c3)c(=O)n21)N1CCCC1 (racemic) [Example 59, (5RS)-2-[(2-Chloropyridin-4-yl)methyl]-5-(pyrrolidin-1-ylcarbonyl)-5,6,7,8-tetrahydro[1,2,4]triazolo[4,3-a]pyridin-3(2H)-one] | 12.2
22 | O=C(C1C(C(F)(F)F)CCc2nn(Cc3ncc(Cl)cc3F)c(=O)n21)N1C[C@@H](F)[C@@H](F)C1 (mixture of isomers) [Example 291, (5RS,6RS)-2-[(5-Chloro-3-fluoropyridin-2-yl)methyl]-5-{[(3R,4S)-3,4-difluoropyrrolidin-1-yl]carbonyl}-6-(trifluoromethyl)-5,6,7,8-tetrahydro[1,2,4]triazolo[4,3-a]pyridin-3(2H)-one] | 96.5
23 | O=C(C1CCCc2nn(Cc3cc(F)c(F)cc3F)c(=O)n21)N1CCCC1 (racemic) [Example 89, (5RS)-5-(Pyrrolidin-1-ylcarbonyl)-2-(2,4,5-trifluorobenzyl)-5,6,7,8-tetrahydro[1,2,4]triazolo[4,3-a]pyridin-3(2H)-one] | 1.3
24 | O=C([C@@H]1CCCc2nn(Cc3cc(C(F)(F)F)nc4ccc(F)cc34)c(=O)n21)N1CCCC1 [Example 498, (5S)-2-{[6-Fluoro-2-(trifluoromethyl)quinolin-4-yl]methyl}-5-(pyrrolidin-1-ylcarbonyl)-5,6,7,8-tetrahydro[1,2,4]triazolo[4,3-a]pyridin-3(2H)-one] | 0.44
25 | CC1CCC(C(=O)N2CC(F)C2)n2c1nn(Cc1ccc(C(F)(F)F)nc1)c2=O (racemic) [Example 328, (5RS,8RS)-5-[(3-Fluoroazetidin-1-yl)carbonyl]-8-methyl-2-{[6-(trifluoromethyl)pyridin-3-yl]methyl}-5,6,7,8-tetrahydro[1,2,4]triazolo[4,3-a]pyridin-3(2H)-one] | 4.1
